ChEMBL document CHEMBL3286220, “2,4-Bis(4-hydroxybenzyl)phenol inhibits heat shock transcription factor 1 and sensitizes lung cancer cells to conventional anticancer modalities” (J Nat Prod, 2014)
Where a chain is given by its changes, count along the chain named. The source made the active and inactive calls.

How the values were obtained:
[1] = target: T1, Heat shock factor protein 1 (Homo sapiens) (UniProt Q00613); test: Inhibition of HSP1 activity in human NCI-H460 cells assessed as reduction of hsp25 promoter activity after 12 hrs by luciferase reporter gene assay; assay type: cell-based
T1 sequence (whole entry): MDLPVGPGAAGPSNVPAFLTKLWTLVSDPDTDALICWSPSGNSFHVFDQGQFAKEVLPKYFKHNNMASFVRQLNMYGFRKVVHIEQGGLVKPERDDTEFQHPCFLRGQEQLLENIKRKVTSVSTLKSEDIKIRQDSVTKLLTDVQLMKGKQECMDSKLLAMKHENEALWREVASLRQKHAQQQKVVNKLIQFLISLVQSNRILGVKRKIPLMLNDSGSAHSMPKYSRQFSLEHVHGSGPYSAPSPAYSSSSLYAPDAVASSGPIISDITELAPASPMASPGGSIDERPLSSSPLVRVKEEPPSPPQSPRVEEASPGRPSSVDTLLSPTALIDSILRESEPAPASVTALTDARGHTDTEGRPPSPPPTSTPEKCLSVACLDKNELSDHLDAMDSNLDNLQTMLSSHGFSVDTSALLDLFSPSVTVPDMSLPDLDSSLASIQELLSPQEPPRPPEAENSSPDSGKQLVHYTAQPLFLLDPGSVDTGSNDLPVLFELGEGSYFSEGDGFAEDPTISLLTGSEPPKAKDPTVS

[2] = target: T1, Heat shock factor protein 1 (Homo sapiens); test: Inhibition of HSP1 activity in human NCI-H460 cells assessed as reduction of hsp70 promoter activity after 12 hrs by luciferase reporter gene assay; assay type: cell-based
[3] = target: T2, Heat shock factor protein 1 (Mus musculus) (UniProt P38532); test: Inhibition of HSP1 activity in mouse MEF assessed as reduction of hsp25 promoter activity at 5 to 100 uM after 12 hrs by luciferase reporter gene assay
T2 sequence (whole entry): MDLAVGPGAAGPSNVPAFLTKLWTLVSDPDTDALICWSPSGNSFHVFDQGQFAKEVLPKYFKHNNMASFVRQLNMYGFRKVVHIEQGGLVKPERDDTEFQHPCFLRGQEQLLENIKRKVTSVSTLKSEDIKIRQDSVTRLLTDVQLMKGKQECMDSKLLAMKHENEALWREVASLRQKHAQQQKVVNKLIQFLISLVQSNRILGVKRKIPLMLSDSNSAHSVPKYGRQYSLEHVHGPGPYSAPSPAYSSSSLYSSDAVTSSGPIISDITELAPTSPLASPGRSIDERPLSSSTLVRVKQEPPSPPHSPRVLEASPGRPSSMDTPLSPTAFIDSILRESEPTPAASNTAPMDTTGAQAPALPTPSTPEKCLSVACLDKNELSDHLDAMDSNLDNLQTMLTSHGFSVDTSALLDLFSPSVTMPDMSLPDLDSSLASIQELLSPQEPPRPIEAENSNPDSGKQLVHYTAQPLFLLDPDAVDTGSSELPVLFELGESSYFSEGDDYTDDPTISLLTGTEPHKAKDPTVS

[4] = target: T2, Heat shock factor protein 1 (Mus musculus); test: Inhibition of HSP1 activity in mouse MEF assessed as reduction of hsp70 promoter activity at 5 to 100 uM after 12 hrs by luciferase reporter gene assay
[5] = target: T1, Heat shock factor protein 1 (Homo sapiens); test: Inhibition of HSP1 activity in human NCI-H460 cells assessed as reduction of HSP27 mRNA expression at 1 to 20 uM after 12 hrs by qRT-PCR analysis; assay type: cell-based
[6] = target: T1, Heat shock factor protein 1 (Homo sapiens); test: Inhibition of HSP1 activity in human NCI-H460 cells assessed as reduction of HSP70 mRNA expression at 1 to 20 uM after 12 hrs by qRT-PCR analysis; assay type: cell-based
[7] = target: T1, Heat shock factor protein 1 (Homo sapiens); test: Inhibition of HSP1 activity in human NCI-H460 cells assessed as reduction of HSP1 mRNA expression at 1 to 20 uM after 12 hrs by qRT-PCR analysis; assay type: cell-based
[8] = target: T1, Heat shock factor protein 1 (Homo sapiens); test: Inhibition of HSP1 activity in human NCI-H460 cells assessed as reduction of HSP27 mRNA expression at 20 uM up to 24 hrs by qRT-PCR analysis; assay type: cell-based
[9] = target: T1, Heat shock factor protein 1 (Homo sapiens); test: Inhibition of HSP1 activity in human NCI-H460 cells assessed as reduction of HSP70 mRNA expression at 20 uM up to 24 hrs by qRT-PCR analysis; assay type: cell-based
[10] = target: T1, Heat shock factor protein 1 (Homo sapiens); test: Inhibition of HSP1 activity in human NCI-H460 cells assessed as reduction of HSP1 mRNA expression at 20 uM up to 24 hrs by qRT-PCR analysis; assay type: cell-based
[11] = target: T1, Heat shock factor protein 1 (Homo sapiens); test: Inhibition of HSP1 activity in human NCI-H460 cells assessed as reduction of HSP25 protein expression after 12 hrs by Western blot analysis; assay type: cell-based
[12] = target: T1, Heat shock factor protein 1 (Homo sapiens); test: Inhibition of HSP1 activity in human NCI-H460 cells assessed as reduction of HSP70 protein expression after 12 hrs by Western blot analysis; assay type: cell-based
[13] = target: T1, Heat shock factor protein 1 (Homo sapiens); test: Inhibition of HSP1 activity in human NCI-H460 cells assessed as reduction of HSP1 protein expression after 12 hrs by Western blot analysis; assay type: cell-based
[14] = target: T1, Heat shock factor protein 1 (Homo sapiens); test: Inhibition of HSP1 activity in human NCI-H460 cells assessed as reduction of HSP25 protein expression at 20 uM by Western blot analysis; assay type: cell-based; settings: TDE = time-dependent effect
[15] = target: T1, Heat shock factor protein 1 (Homo sapiens); test: Inhibition of HSP1 activity in human NCI-H460 cells assessed as reduction of HSP70 protein expression at 20 uM by Western blot analysis; assay type: cell-based; settings: TDE = time-dependent effect
[16] = target: T1, Heat shock factor protein 1 (Homo sapiens); test: Inhibition of HSP1 activity in human NCI-H460 cells assessed as reduction of HSP1 protein expression at 20 uM by Western blot analysis; assay type: cell-based; settings: TDE = time-dependent effect
[17] = target: T1, Heat shock factor protein 1 (Homo sapiens); test: Reduction of HSP1 stability in human NCI-H460 cells assessed as protein degradation at 10 uM up to 9 hrs by Western blot analysis in presence of cyclohexamide; assay type: cell-based
[18] = target: T1, Heat shock factor protein 1 (Homo sapiens); test: Induction of HSP1 dephosphorylation at S230, S303/307, and S326 in human NCI-H460 cells after 24 hrs by Western blot analysis; assay type: cell-based
[19] = test system: T3, Heat shock factor protein 1 (Homo sapiens), Q00613 [S326E]; test: Reduction of HSP1 phosphorylated at S326E mutant stability in human NCI-H460 cells up to 7.5 hrs by Western blot analysis in presence of cyclohexamide; assay type: cell-based
T3 sequence (whole entry): T1 sequence (whole entry) with S326E

[20] = test system: T4, Heat shock factor protein 1 (Homo sapiens), Q00613 [S326A]; test: Reduction of HSP1 dephosphorylated at S326A mutant stability in human NCI-H460 cells up to 7.5 hrs by Western blot analysis in presence of cyclohexamide; assay type: cell-based
T4 sequence (whole entry): T1 sequence (whole entry) with S326A

[21] = test system: NCI-H460; test: Cytotoxicity against human NCI-H460 cells up to 100 uM after 24 hrs by MTT assay; assay type: functional, cell-based
[22] = test system: NCI-H460; test: Induction of apoptosis in human NCI-H460 cells assessed as cleaved PARP and caspase 3 level after 12 hrs; assay type: functional, cell-based
[23] = test system: NCI-H460; test: Induction of apoptosis in human NCI-H460 cells assessed as cleaved PARP and caspase 3 level at 20 uM; assay type: functional, cell-based; settings: TDE = time-dependent effect
[24] = test system: NCI-H460; test: Induction of apoptosis in human NCI-H460 cells assessed as cyclin D and cyclin E level after 12 hrs; assay type: functional, cell-based
[25] = test system: NCI-H460; test: Induction of apoptosis in human NCI-H460 cells assessed as cyclin D and cyclin E level at 20 uM; assay type: functional, cell-based; settings: TDE = time-dependent effect
[26] = test system: NCI-H460; test: Cytotoxicity against human NCI-H460 cells expressing siHSF1 up to 100 uM after 24 hrs by MTT assay; assay type: functional, cell-based
[27] = test system: NCI-H460; test: Induction of apoptosis in human NCI-H460 cells expressing siHSF1 assessed as cleaved PARP and caspase 3 level up to 20 uM after 12 hrs; assay type: functional, cell-based
[28] = test system: NCI-H460; test: Cytotoxicity against HSF1 deficient human NCI-H460 cells up to 100 uM after 24 hrs by MTT assay; assay type: functional, cell-based
[29] = target: T1, Heat shock factor protein 1 (Homo sapiens); test: Reduction of HSP1 stability in human NCI-H460 cells assessed as protein degradation at 10 ug/mL up to 9 hrs by Western blot analysis; assay type: cell-based

Oc1ccc(Cc2ccc(O)c(Cc3ccc(O)cc3)c2)cc1
active: inhibition [1] Dose-dependent effect | inhibition [2] Dose-dependent effect | inhibition [5] | inhibition [6] | inhibition [8] | inhibition [9] | inhibition [11] Dose-dependent effect | inhibition [12] Dose-dependent effect | inhibition [13] Dose-dependent effect | inhibition [14] tde | inhibition [15] tde | inhibition [16] tde | Activity [17] | Activity [18] Dose-dependent effect | Activity [19] | Activity [20] | Activity [21] | Activity [22] Dose-dependent effect | Activity [23] tde | Activity [24] Dose-dependent effect | Activity [25] tde | Activity [27] | Activity [28]
inactive: inhibition [3] | inhibition [4] | inhibition [7] | inhibition [10] | Activity [26]

C[C@@H]1C[C@@H]([C@H](O)CC2CC(=O)NC(=O)C2)C(=O)[C@@H](C)C1
active: Activity [29]
